Common to all, as to type: physicochemical
A short description of series [1]: High-Molecular-Weight-Protein (HMWP) formation by SEC-UPLC. The settings on record: increase over two weeks at 37° C. On the procedure: In order to assess the propensity of CNP compounds to form covalent dimers or oligomers when formulated the High-Molecular-Weight-Protein content of CNP compound formulations at pH 4.0 and 6.5 were determined.
Procedure: The relative amount of covalent HMWP was assessed using SEC-UPLC. SEC-UPLC was conducted using a Waters UPLC Protein BEH SEC column, 125A, 4.6×150 mm, 1.7 μm, with isocratic elution (0.3 M NaCl, 10 mM NaH2PO4 and 5 mM H3PO4, 50% (v/v) isopropanol, pH 2.4) with a flow rate of 0.3 mL/min, a column temperature at 50° C. with UV-detection at 215 nm. The total area of peaks eluting prior to the monomeric main peak was termed HMWP and given on a percentage scale relative to the total peptide peak area.
Results: HMWP Formation Following 2-Weeks Quiescent Incubation at 37° C.: Samples at pH 4.0 were prepared as described in Example 5 and the amount of HMWP was determined as described above. Samples were incubated for two weeks at 37° C. and the amount of HMWP was determined again. The increase in HMWP over two weeks incubation at 37° C. are reported in Table 10 (in case the incubation period deviated from two weeks the increase in HMWP was normalized to two weeks assuming a constant formation rate).
Samples at pH 6.5 were prepared as described in Example 5 and the amount of HMWP was determined as described above. Samples were incubated for two weeks at 37° C. and the amount of HMWP was determined again. The increase in HMWP over two weeks incubation at 37° C. are reported in Table 11 (in case the incubation period deviated from two weeks the increase in HMWP was normalized to two weeks assuming a constant formation rate).
Background: Size exclusion chromatography separates by hydrodynamic size, large species first.

Series [2] can be described thus: Solubility of CNP compounds at pH 4.0 and pH 6.5. An outline of the steps: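 Supernatant peptide concentration was quantified by CAD after overnight room-temperature equilibration of incompletely dissolved samples. Nominal loading was ≥4000-5000 nmol/mL. Media were pH 4.0 sodium acetate 5 mM/glycerol 250 mM, or pH 6.5 sodium phosphate 8 mM/glycerol 23 mg/mL reached by stepwise NaOH addition.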

A short description of series [3]: Thioflavin T (ThT) assay: lagtime and peptide recovery. The note with it: assay terminated after 45 hours; for LagTime (h) at pH 6.5: ThT assay, pH 6.5, 37° C.; for LagTime (h) at pH 4.0: ThT, 37° C., shaking. An outline of the steps: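 ThT (final about 1 μM) was added to peptide supernatants at pH 4.0 and 6.5 and incubated at 37 °C with orbital shaking for 45 h. Fluorescence (ex 444/em 485 nm) was read every 20 min, and lag-time was taken as the time to onset of signal rise. Recovery is the RP-UPLC (215 nm) total peak area after vs. before incubation.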

Setting [4] is: 8 mM sodium phosphate, 23 mg/mL glycerol, pH 6.5, room temperature, read-out: Solubility at pH 6.5.
The mark [5] stands for this setting: 5 mM sodium acetate, 250 mM glycerol, pH 4.0, room temperature, read-out: Solubility at pH 4.0.

Molecules are shown by their SMILES. Converted amounts (≈) assume the structure as drawn. “And” between values parts separate entries of the source, which are not always exact repeats. Equal entries are not always repeated. Where two headings read alike, the source gives them in different places. Starred links: 1 amine or outer side, 2 acyl side, 3 side chain; linkers in the order of their positions; H or OH if unused. Positions of bridges follow the written chain, without caps; N, C: chain ends. Residues, ends and D or L forms follow the SMILES beside them. *: point of attachment. C18 diacid = O=C(O)CCCCCCCCCCCCCCCCC(=O)*; γGlu = O=C(O)[C@H](CCC(=O)[*:2])N[*:1]; AEEA = NCCOCCOCC(=O)O

Experimental findings from patent US20240209028A1, “CNP COMPOUNDS” (priority 2022, published 2024) are described below.

For orientation: solubility means the dissolved amount per volume that the medium holds.

For `CC[C@H](C)[C@@H]1NC(=O)[C@H](CCCNC(=N)N)NC(=O)[C@H](CC(=O)O)NC(=O)[C@H](CC(C)C)NC(=O)[C@@H]2CCCN2C(=O)[C@H](CC(C)C)NC(=O)CNC(=O)[C@H](Cc2ccccc2)NC(=O)[C@@H](NC(=O)CNC(=O)[C@H](CCC(N)=O)NC(=O)[C@H](CO)NC(=O)CNC(=O)CNC(=O)[C@H](CCCCN)NC(=O)[C@H](CCCCN)NC(=O)[C@H](CCC(N)=O)NC(=O)[C@H](C)NC(=O)CNC(=O)[C@H](Cc2c[nH]cn2)NC(=O)[C@H](Cc2ccc(O)cc2)NC(=O)COCCOCCNC(=O)COCCOCCNC(=O)COCCOCCNC(=O)COCCOCCNC(=O)CC[C@H](NC(=O)CC[C@H](NC(=O)CCCCCCCCCCCCCCCCC(=O)O)C(=O)O)C(=O)O)CSSC[C@@H](C(=O)O)NC(=O)CNC(=O)[C@H](CC(C)C)NC(=O)CNC(=O)[C@H](CO)NC(=O)[C@H](CC(C)C)NC(=O)[C@H](CO)NC(=O)CNC1=O` [compound 1434] ({C18 diacid-γGlu-γGlu-AEEA-AEEA-AEEA-AEEA}-YHGAQKKGGSQGCFGLPLDRIGSLSGLGC-OH; disulfide 13-29), the “2-Week HMWP formation at pH 6.5 (%), % relative to total peak area” value in series [1] stood at 3.2%. For the same compound, the solubility in series [2] (setting [4]) came to 8.51 mM (≈ 34.4 mg/mL). Also, in series [3], the “LagTime (h) at pH 6.5” value turned out to be 45 h.
With `CC[C@H](C)[C@@H]1NC(=O)[C@H](CCCNC(=N)N)NC(=O)[C@H](CC(=O)O)NC(=O)[C@H](CC(C)C)NC(=O)[C@@H]2CCCN2C(=O)[C@H](CC(C)C)NC(=O)CNC(=O)[C@H](Cc2ccccc2)NC(=O)[C@@H](NC(=O)CNC(=O)[C@H](CCC(N)=O)NC(=O)[C@H](CO)NC(=O)[C@H](CO)NC(=O)CNC(=O)[C@H](Cc2c[nH]cn2)NC(=O)[C@H](Cc2c[nH]cn2)NC(=O)[C@H](CCC(N)=O)NC(=O)[C@H](C)NC(=O)CNC(=O)[C@H](Cc2c[nH]cn2)NC(=O)[C@H](Cc2ccc(O)cc2)NC(=O)[C@H](CCCCN)NC(=O)[C@H](Cc2c[nH]cn2)NC(=O)[C@H](C)NC(=O)[C@H](CCC(N)=O)NC(=O)[C@@H]2CCCN2C(=O)[C@H](Cc2c[nH]cn2)NC(=O)[C@H](CCC(=O)O)NC(=O)[C@H](CCC(N)=O)NC(=O)COCCOCCNC(=O)COCCOCCNC(=O)CC[C@H](NC(=O)CCCCCCCCCCCCCCCCC(=O)O)C(=O)O)CSSC[C@@H](C(=O)O)NC(=O)CNC(=O)[C@H](CC(C)C)NC(=O)CNC(=O)[C@H](CO)NC(=O)[C@H](CC(C)C)NC(=O)[C@H](CO)NC(=O)CNC1=O` [compound 1381] ({C18 diacid-γGlu-AEEA-AEEA}-QEHPQAHKYHGAQHHGSSQGCFGLPLDRIGSLSGLGC-OH; disulfide 21-37), the “2-Week HMWP formation at pH 4.0 (%), % relative to total peak area” value in series [1] is 0.84%. Besides, in series [2] (setting [5]), the solubility was 9 mM (≈ 41.6 mg/mL). For the same compound, the “LagTime (h) at pH 4.0” value in series [3] is listed as 45 h.
For the compound `CC[C@H](C)[C@@H]1NC(=O)[C@H](CCCNC(=N)N)NC(=O)[C@H](CCC(=O)O)NC(=O)[C@H](CC(C)C)NC(=O)[C@@H]2CCCN2C(=O)[C@H](CC(C)C)NC(=O)CNC(=O)[C@H](Cc2ccccc2)NC(=O)[C@@H](NC(=O)CNC(=O)[C@H](CO)NC(=O)[C@H](CO)NC(=O)[C@H](CC(C)C)NC(=O)CNC(=O)[C@H](CCCCN)NC(=O)[C@H](CCCCN)NC(=O)[C@H](CCC(N)=O)NC(=O)[C@H](C)NC(=O)CNC(=O)[C@H](CCCCN)NC(=O)[C@H](Cc2ccc(O)cc2)NC(=O)[C@H](CCCCN)NC(=O)[C@H](CCCNC(=N)N)NC(=O)[C@H](C)NC(=O)[C@H](CCC(N)=O)NC(=O)[C@@H]2CCCN2C(=O)[C@H](Cc2c[nH]cn2)NC(=O)[C@H](CCC(=O)O)NC(=O)[C@H](CCC(N)=O)NC(=O)CC[C@H](NC(=O)CC[C@H](NC(=O)CC[C@H](NC(=O)CC[C@H](NC(=O)CCCCCCCCCCCCCCCCC(=O)O)C(=O)O)C(=O)O)C(=O)O)C(=O)O)CSSC[C@@H](C(=O)O)NC(=O)CNC(=O)[C@H](CC(C)C)NC(=O)CNC(=O)[C@H](CO)NC(=O)[C@H](CC(C)C)NC(=O)[C@H](CO)NC(=O)CNC1=O` [compound 9483] ({C18 diacid-γGlu-γGlu-γGlu-γGlu}-QEHPQARKYKGAQKKGLSSGCFGLPLERIGSLSGLGC-OH; disulfide 21-37), the “2-Week HMWP formation at pH 4.0 (%), % relative to total peak area” value in series [1] was 3.0%. The compound also showed a solubility in series [2] (pH 4) of 4.96 mM (≈ 23.4 mg/mL). Also, the “LagTime (h) at pH 4.0” value in series [3] is recorded as 45 h.
Turning to `CC[C@H](C)[C@@H]1NC(=O)[C@H](CCCNC(=N)N)NC(=O)[C@H](CC(=O)O)NC(=O)[C@H](CC(C)C)NC(=O)[C@@H]2CCCN2C(=O)[C@H](CC(C)C)NC(=O)CNC(=O)[C@H](Cc2ccccc2)NC(=O)[C@@H](NC(=O)CNC(=O)[C@H](CO)NC(=O)[C@H](CO)NC(=O)[C@H](CC(C)C)NC(=O)CNC(=O)[C@H](CCCCN)NC(=O)[C@H](CCCCN)NC(=O)[C@H](CCC(N)=O)NC(=O)[C@H](C)NC(=O)CNC(=O)[C@H](CCC(=O)O)NC(=O)[C@H](Cc2ccc(O)cc2)NC(=O)CNC(=O)CNC(=O)CNC(=O)COCCOCCNC(=O)COCCOCCNC(=O)CC[C@H](NC(=O)CCCCCCCCCCCCCCCCC(=O)O)C(=O)O)CSSC[C@@H](C(=O)O)NC(=O)CNC(=O)[C@H](CC(C)C)NC(=O)CNC(=O)[C@H](CO)NC(=O)[C@H](CC(C)C)NC(=O)[C@H](CO)NC(=O)CNC1=O` [compound 1378] ({C18 diacid-γGlu-AEEA-AEEA}-GGGYEGAQKKGLSSGCFGLPLDRIGSLSGLGC-OH; disulfide 16-32), the “2-Week HMWP formation at pH 6.5 (%), % relative to total peak area” value in series [1] was found to be 6.67%. For the same compound, the solubility in series [2] (setting [4]) turned out to be 8.92 mM (≈ 33.9 mg/mL). Moreover, the “LagTime (h) at pH 6.5” value in series [3] turned out to be 2.5 h.
On the same counts, the results for `CC[C@H](C)[C@@H]1NC(=O)[C@H](CCCNC(=N)N)NC(=O)[C@H](CC(=O)O)NC(=O)[C@H](CC(C)C)NC(=O)[C@@H]2CCCN2C(=O)[C@H](CC(C)C)NC(=O)CNC(=O)[C@H](Cc2ccccc2)NC(=O)[C@@H](NC(=O)CNC(=O)[C@H](CCC(N)=O)NC(=O)[C@H](CO)NC(=O)[C@H](CC(C)C)NC(=O)CNC(=O)[C@H](CCCCN)NC(=O)[C@H](CCCCN)NC(=O)[C@H](CCC(N)=O)NC(=O)[C@H](C)NC(=O)CNC(=O)[C@H](CCCCN)NC(=O)[C@H](Cc2ccc(O)cc2)NC(=O)[C@H](CCCCN)NC(=O)[C@H](CCCNC(=N)N)NC(=O)[C@H](C)NC(=O)COCCOCCNC(=O)COCCOCCNC(=O)COCCOCCNC(=O)COCCOCCNC(=O)CC[C@H](NC(=O)CC[C@H](NC(=O)CC[C@H](NC(=O)CC[C@H](NC(=O)CC[C@H](NC(=O)CCCCCCCCCCCCCCCCC(=O)O)C(=O)O)C(=O)O)C(=O)O)C(=O)O)C(=O)O)CSSC[C@@H](C(=O)O)NC(=O)CNC(=O)[C@H](CC(C)C)NC(=O)CNC(=O)[C@H](CO)NC(=O)[C@H](CC(C)C)NC(=O)[C@H](CO)NC(=O)CNC1=O` [compound 9407] ({C18 diacid-γGlu-γGlu-γGlu-γGlu-γGlu-AEEA-AEEA-AEEA-AEEA}-ARKYKGAQKKGLSQGCFGLPLDRIGSLSGLGC-OH; disulfide 16-32) are 12%, 6.69 mM (≈ 32.3 mg/mL) and 45 h.
Regarding `CC[C@H](C)[C@@H]1NC(=O)[C@H](CCCNC(=N)N)NC(=O)[C@H](CC(=O)O)NC(=O)[C@H](CC(C)C)NC(=O)[C@@H]2CCCN2C(=O)[C@H](CC(C)C)NC(=O)CNC(=O)[C@H](Cc2ccccc2)NC(=O)[C@@H](NC(=O)CNC(=O)[C@H](CO)NC(=O)[C@H](CO)NC(=O)[C@H](CC(C)C)NC(=O)CNC(=O)[C@H](CCCCN)NC(=O)[C@H](CCCCN)NC(=O)[C@H](CCC(N)=O)NC(=O)[C@H](C)NC(=O)CNC(=O)[C@H](CCCCN)NC(=O)[C@H](Cc2ccc(O)cc2)NC(=O)[C@H](CCCCN)NC(=O)[C@H](CCCNC(=N)N)NC(=O)[C@H](C)NC(=O)[C@H](CCC(N)=O)NC(=O)[C@@H]2CCCN2C(=O)[C@H](Cc2c[nH]cn2)NC(=O)[C@H](CCC(=O)O)NC(=O)[C@H](CCC(N)=O)NC(=O)COCCOCCNC(=O)COCCOCCNC(=O)CC[C@H](NC(=O)CC[C@H](NC(=O)CC[C@H](NC(=O)CC[C@H](NC(=O)CCCCCCCCCCCCCCCCC(=O)O)C(=O)O)C(=O)O)C(=O)O)C(=O)O)CSSC[C@@H](C(=O)O)NC(=O)CNC(=O)[C@H](CC(C)C)NC(=O)CNC(=O)[C@H](CO)NC(=O)[C@H](CC(C)C)NC(=O)[C@H](CO)NC(=O)CNC1=O` [compound 1473] ({C18 diacid-γGlu-γGlu-γGlu-γGlu-AEEA-AEEA}-QEHPQARKYKGAQKKGLSSGCFGLPLDRIGSLSGLGC-OH; disulfide 21-37; C-terminus assumed), the “2-Week HMWP formation at pH 4.0 (%), % relative to total peak area” value in series [1] is 0.9% and 1.26%. For the same compound, the solubility worked out at 5.83 mM (≈ 29.1 mg/mL) in series [2] (setting [5]) and 1.76 mM (≈ 8.8 mg/mL) in series [2] (setting [4]). In addition, the “LagTime (h) at pH 4.0” value in series [3] is 45 h.
